According to article PMC10920834, “Synthesis, anticancer activity, and molecular docking of half-sandwich iron(II) cyclopentadienyl complexes with maleimide and phosphine or phosphite ligands” (Scientific Reports, 2024):

Assays:
Type in all cases: cell-based, human
HL-60 cells [1] = assay: Alkaline comet assay, HL-60 cells; details: 2 h incubation, 1-50 μM tested
Experimental: Selected iron(II) complexes were added to the suspension of the cells to give final concentrations of 1, 5, 10, 25 and 50 μM. HL-60 and A549 cells were incubated with the complexes for 2 h at 37 °C. The comet assay was performed under alkaline conditions according to the procedure of Tokarz et al.[45]. […] Next, the cells were lysed for 1 h at 4 °C in a buffer containing 2.5 M NaCl, 0.1 M EDTA, 10 mM Tris, 1% Triton X-100, pH 10. Following the lysis, the slides were placed in an electrophoresis unit. DNA was allowed to unwind for 20 min in the solution containing 300 mM NaOH and 1 mM EDTA, pH > 13. […] After separation, the slides were washed in water, drained, stained with 2 μg/ml DAPI and covered with cover slips. As a prevention from additional DNA damage, the procedure described above was conducted under limited light or in the dark. Each experiment included the positive control—cells incubated with H2O2 at 20 µM for 15 min on ice (data not shown).
The comets obtained after single cell gel electrophoresis were analysed in the following manner. […] Hundred images of singular comets were randomly selected from each sample and the mean value of DNA in comet tail was taken as an index of DNA damage (expressed in percent).

HL-60 cells [2] = assay: Cell viability resazurin assay, HL-60 cells; details: for viability of HL-60 cells relative to control: ± SD
Experimental: (§1) The A549 (human non-small cell lung cancer) cell line was obtained from the American Type Culture Collection (ATCC) and cultured in Dulbecco's Modified Eagle Medium (DMEM) with 10% fetal bovine serum (FBS), 2 mM L-Glutamine, 25 mM HEPES and penicillin/streptomycin solution (100 U/ml and 100 µg/ml, respectively). The HL-60 (human promyelocytic leukemia) cell line was also obtained from the American Type Culture Collection (ATCC) and cultured in Iscove’s Modified Dulbecco's Medium (IMDM) with 15% fetal bovine serum (FBS), 2 mM L-Glutamine, 25 mM HEPES and penicillin/streptomycin solution (100 U/ml and 100 µg/ml, respectively). Both cell lines were cultured in flasks at 37 °C in 5% CO2 and sub-cultured every 2–3 days to maintain exponential growth.
(§2) Firstly, resazurin salt powder was dissolved in sterile 1 × PBS. Cells were then seeded on the 96-well plates in the count of 1 × 10^4 in the case of HL-60 cells and of 5 × 10^4 for PBM cells and of 5 × 10^3 for A549 cells per well. A549 cells were seeded 24 h prior to treatment with the complexes to allow cell adherence to 96-well plate. Iron(II) complexes were added to wells to obtain final concentrations of 0.5, 1, 2.5, 5, 10, 25, 50, 100 and 250 μM. Subsequently, plates were incubated at 37 °C in 5% CO2 for 2 h and 24 h. After that 10 μl of resazurin salt was added to each well and plates again were incubated in 37 °C in 5% CO2 for 2 h. Finally, fluorescence was measured with microplate reader Synergy HT (Bio-Tek Instruments, USA) using an excitation wavelength of 530/25 and an emission wavelength of 590/35 nm. The effects of iron(II) complexes were calculated as the percentage of control fluorescence. IC50 (half maximal inhibitory concentration) values were calculated using a website algorithm (https://www.aatbio.com/tools/ic50-calculator). All assays were performed in octuplicate.

PBM cells = assay: Cell viability resazurin assay, PBM cells; details: for viability of PBM cells relative to control: ± SD
Source text: Peripheral blood mononuclear (PBM) cells were isolated from a leukocyte-buffy coat collected from the blood of healthy, non-smoking donors at the Blood Bank in Lodz, Poland. The study protocol received approval from the Committee for Research on Human Subjects of the University of Lodz (17/KBBN-UŁ/III/2019). The initial step of isolation process involved mixing buffy coats with PBS in a 1:1 ratio. Subsequently, the mixture was centrifuged using a density gradient of Lymphosep (Cytogen, Zgierz, Poland) at 2200 RPM for 20 min, employing the lowest values for acceleration and deceleration. PBM cells were collected and washed three times by centrifugation with 1 × PBS. Following isolation, the cells were suspended in RPMI 1640 medium.
as §2

A549 cells = assay: Cell viability resazurin assay, A549 cells; details: for viability of A549 cells relative to control: ± SD
Experimental: as §1, §2

CCOP(OCC)OCC.O=C1C=CC(=O)[N-]1.[C-]#[O+].[Fe+2].c1cc[cH-]c1 [3a]
DNA damage in HL-60 cells (alkaline comet assay), in words (HL-60 cells [1]): DNA damage at the concentrations of 10, 25 and 50 μM
viability of HL-60 cells relative to control (HL-60 cells [2]; 2 h incubation, 0.5 µM): 103.48 ± 2.11%
viability of HL-60 cells relative to control (HL-60 cells [2]; 2 h incubation, 1 µM): 105.44 ± 1%
viability of HL-60 cells relative to control (HL-60 cells [2]; 2 h incubation, 2.5 µM): 102.35 ± 0.54%
viability of HL-60 cells relative to control (HL-60 cells [2]; 2 h incubation, 5 µM): 100.13 ± 1.86%
viability of HL-60 cells relative to control (HL-60 cells [2]; 2 h incubation, 10 µM): 101.73 ± 3.47%
viability of HL-60 cells relative to control (HL-60 cells [2]; 2 h incubation, 25 µM): 97.68 ± 2.4%
viability of HL-60 cells relative to control (HL-60 cells [2]; 2 h incubation, 50 µM): 93.65 ± 1.73%
viability of HL-60 cells relative to control (HL-60 cells [2]; 2 h incubation, 100 µM): 87.54 ± 2.53%
viability of HL-60 cells relative to control (HL-60 cells [2]; 2 h incubation, 250 µM): 30.8 ± 1.55%
IC50 (HL-60 cells [2]; 24 h incubation): 15.9 µM
viability of HL-60 cells relative to control (HL-60 cells [2]; 24 h incubation, 0.5 µM): 107.33 ± 1.24%
viability of HL-60 cells relative to control (HL-60 cells [2]; 24 h incubation, 1 µM): 109.38 ± 4%
viability of HL-60 cells relative to control (HL-60 cells [2]; 24 h incubation, 2.5 µM): 112.36 ± 1.5%
viability of HL-60 cells relative to control (HL-60 cells [2]; 24 h incubation, 5 µM): 106.89 ± 3.43%
viability of HL-60 cells relative to control (HL-60 cells [2]; 24 h incubation, 10 µM): 89 ± 3.39%
viability of HL-60 cells relative to control (HL-60 cells [2]; 24 h incubation, 25 µM): 46.28 ± 0.82%
viability of HL-60 cells relative to control (HL-60 cells [2]; 24 h incubation, 50 µM): 38.62 ± 0.52%
viability of HL-60 cells relative to control (HL-60 cells [2]; 24 h incubation, 100 µM): 39.69 ± 0.83%
viability of HL-60 cells relative to control (HL-60 cells [2]; 24 h incubation, 250 µM): 17.5 ± 0.5%
viability of PBM cells relative to control (PBM cells; 2 h incubation, 0.5 µM): 83.62 ± 1.79%
viability of PBM cells relative to control (PBM cells; 2 h incubation, 1 µM): 82.59 ± 3.38%
viability of PBM cells relative to control (PBM cells; 2 h incubation, 2.5 µM): 83.52 ± 1.8%
viability of PBM cells relative to control (PBM cells; 2 h incubation, 5 µM): 86.67 ± 4.18%
viability of PBM cells relative to control (PBM cells; 2 h incubation, 10 µM): 89.89 ± 2.91%
viability of PBM cells relative to control (PBM cells; 2 h incubation, 25 µM): 98.19 ± 4.2%
viability of PBM cells relative to control (PBM cells; 2 h incubation, 50 µM): 98.5 ± 3.37%
viability of PBM cells relative to control (PBM cells; 2 h incubation, 100 µM): 97.79 ± 4.89%
viability of PBM cells relative to control (PBM cells; 2 h incubation, 250 µM): 98.17 ± 2.87%
IC50 (PBM cells; 24 h incubation): > 250 µM
viability of PBM cells relative to control (PBM cells; 24 h incubation, 0.5 µM): 102.49 ± 0.39%
viability of PBM cells relative to control (PBM cells; 24 h incubation, 1 µM): 104.14 ± 1.97%
viability of PBM cells relative to control (PBM cells; 24 h incubation, 2.5 µM): 104.31 ± 0.56%
viability of PBM cells relative to control (PBM cells; 24 h incubation, 5 µM): 102.43 ± 1.43%
viability of PBM cells relative to control (PBM cells; 24 h incubation, 10 µM): 99.21 ± 0.78%
viability of PBM cells relative to control (PBM cells; 24 h incubation, 25 µM): 98.34 ± 0.97%
viability of PBM cells relative to control (PBM cells; 24 h incubation, 50 µM): 98.58 ± 2.84%
viability of PBM cells relative to control (PBM cells; 24 h incubation, 100 µM): 102.37 ± 3.3%
viability of PBM cells relative to control (PBM cells; 24 h incubation, 250 µM): 94.72 ± 3.88%
viability of A549 cells relative to control (A549 cells; 2 h incubation, 0.5 µM): 100.11 ± 13.46%
viability of A549 cells relative to control (A549 cells; 2 h incubation, 1 µM): 89.02 ± 8.33%
viability of A549 cells relative to control (A549 cells; 2 h incubation, 2.5 µM): 86.36 ± 7.43%
viability of A549 cells relative to control (A549 cells; 2 h incubation, 5 µM): 85.49 ± 7.39%
viability of A549 cells relative to control (A549 cells; 2 h incubation, 10 µM): 83.61 ± 12.73%
viability of A549 cells relative to control (A549 cells; 2 h incubation, 25 µM): 82.29 ± 5.9%
viability of A549 cells relative to control (A549 cells; 2 h incubation, 50 µM): 82.69 ± 3.89%
viability of A549 cells relative to control (A549 cells; 2 h incubation, 100 µM): 74.97 ± 6.81%
viability of A549 cells relative to control (A549 cells; 2 h incubation, 250 µM): 68.50 ± 8.56%
IC50 (A549 cells; 24 h incubation): > 250 µM
cytotoxicity against A549 cells, in words (A549 cells; 24 h incubation): did not show cytotoxicity
viability of A549 cells relative to control (A549 cells; 24 h incubation, 0.5 µM): 80.91 ± 12.58%
viability of A549 cells relative to control (A549 cells; 24 h incubation, 1 µM): 70.97 ± 10.92%
viability of A549 cells relative to control (A549 cells; 24 h incubation, 2.5 µM): 68.70 ± 18.12%
viability of A549 cells relative to control (A549 cells; 24 h incubation, 5 µM): 68.55 ± 13.94%
viability of A549 cells relative to control (A549 cells; 24 h incubation, 10 µM): 71.63 ± 17.67%
viability of A549 cells relative to control (A549 cells; 24 h incubation, 25 µM): 131.92 ± 19.26%
viability of A549 cells relative to control (A549 cells; 24 h incubation, 50 µM): 131.87 ± 25.64%
viability of A549 cells relative to control (A549 cells; 24 h incubation, 100 µM): 153.54 ± 19.26%
viability of A549 cells relative to control (A549 cells; 24 h incubation, 250 µM): 95.62 ± 13.21%
A549 cell viability, increase with increasing concentrations to (A549 cells; 24 h incubation, concentration not given): 153%
